Assay results as given in patent publication US7786141B2 (Vertex Pharmaceuticals Incorporated, priority 2004, dated 2010).

Assays:
M4 muscarinic receptor = target: T1, M4 muscarinic receptor (Homo sapiens, UniProt P08173); experiment: Functional mobilization of intracellular calcium (FLIPR) in M4-CHO cells; assay type: cell-based; conditions: M4 receptor, calcium mobilization; for Emax: read-out: M4 Efficacy
T1 construct: expressed in transfected cells; host or cells: CHO (M4-CHO)
T1 sequence (P08173 1-479): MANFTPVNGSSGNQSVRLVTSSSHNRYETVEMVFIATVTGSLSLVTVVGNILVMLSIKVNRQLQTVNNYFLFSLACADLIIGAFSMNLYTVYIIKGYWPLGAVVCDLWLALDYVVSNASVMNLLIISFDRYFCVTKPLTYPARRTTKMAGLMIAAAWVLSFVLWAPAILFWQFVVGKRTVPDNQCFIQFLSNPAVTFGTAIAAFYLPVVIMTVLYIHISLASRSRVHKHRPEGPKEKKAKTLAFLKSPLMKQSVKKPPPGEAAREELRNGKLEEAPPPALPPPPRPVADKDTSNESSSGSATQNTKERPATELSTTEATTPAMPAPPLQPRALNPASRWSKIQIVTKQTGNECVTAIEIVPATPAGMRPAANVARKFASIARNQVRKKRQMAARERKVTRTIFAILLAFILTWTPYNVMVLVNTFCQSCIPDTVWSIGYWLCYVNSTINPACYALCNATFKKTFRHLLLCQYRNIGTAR
Description: (§1) Functional Mobilization of Intracellular Calcium to Determine Muscarinic Receptor Activity:
(§2) CHO cells expressing muscarinic receptors (M1 to M5) are grown as monolayers in tissue culture flasks at 37° C. in a humidified atmosphere containing 5% CO2 and passaged every 3-5 days. The growth media is Dulbecco's modified eagles medium (DMEM, Gibco Cat# 12430-054), containing 25 mM Hepes and supplemented with Fetal Bovine Serum (Hyclone, cat# SH30071.03), 0.1 mM of MEM non-essential amino acids (GIBCO, Cat# 11140-050), 1 mM MEM Sodium Pyruvate (GIBCO Cat# 11360-070) and 100 units/ml of Penicillin G and 100 μg/ml of Streptomycin (GIBCO Cat# 15140-122). The recombinant muscarinic receptor cell lines are grown under antibiotic pressure with media containing 25 μg/ml zeocin and 500 μg/ml G418 (M1-CHO), 4 μg/ml puromycin, 50 μg/ml zeocin and 2.5 μg/ml blasticidin (M2 and M4-CHO) or 50 μg/ml zeocin and 4 μg/ml puromycin (M3 and M5-CHO).
(§3) Cells are harvested at 80-90% confluence using Versene (GIBCO Cat# 15040-066), collected by centrifugation and seeded 18-24 hrs prior to running the calcium assay at a density of 5,000 cells/well in back-walled, clear-bottomed 384-well plates (BD Biocoat, poly-D-lysine, Cat#356663). The day of the experiment, the cells are washed with a plate washer (Bioteck Instruments, ELX 405) using bath 1 buffer (140-mM NaCl, 4.5-mM KCl, 2-mM CaCl2, 1-mM MgCl2, 10-mM Hepes-Na, 10-mM Glucose, pH 7.4, with NaOH) containing 1 mM Probenecid. Next, the calcium dye Fluo-3 (25 μl/well of Fluo-3 AM at 4 μM, Molecular Probes F-1241, in Bath 1 buffer containing 1 mM Probenecid) is added to the 25 μl of Bath 1 remaining in each well after the plate wash and the dye is loaded at 37° C. in the tissue culture incubator for 60-90 min. The fluorescent dye is removed using the plate washer with Bath 1 containing 1 mM Probenecid, leaving 25 μl/well of this solution after the wash. Alternatively, cells can be loaded with the calcium indicator from Molecular Devices (Calcium 3 Assay Reagents, Cat # R7181) adding 5 μl of a 5× solution dye in Bath 1 containing 1 mM Probenecid (10 ml per dye flask cat# R7182 to generate a solution 20×) to 20 μl of the same buffer. After loading for 60 min, the experiment can be run without having to remove the dye.
(§4) Compounds are prepared at a 2× fold concentration in a 96-well plate (round bottom, Costar Corning cat# 3656), by reconstituting the pre-spotted compounds in bath 1 containing 1 mM probenecid. The final concentration DMSO is 0.5%, and the amount of DMSO is normalized across the assay plate. To determine an agonist action of the compounds on muscarinic receptors, the reconstituted compounds are added (25 μl compound/well) to the cell assay plate (containing 25 μl/well) using the multi-channel robotic system of the FLIPR 3 Instrument (Molecular Devices, Sunnyvale, Calif.). To determine a functional inhibitory action of the compounds on muscarinic receptors, the reconstituted compounds are added (25 μl compound/well) to the assay plate and pre-incubated for 15 min prior to adding 25 μl of Carbachol at 3× the EC80 for each muscarinic subtype. Alternatively, the compounds can be co-applied simultaneously with the agonist. In both assay modes, the fluorescence is recorded for 60 sec (excitation wavelength is […] and emission wavelength 540 nm) using the FLIPR 3 instrument.
(§5) The potency, efficacy and selectivity of the muscarinic compounds were evaluated by screening the compound activity across the whole family (M1 to M5 cells). Compounds were also screened for activity on other proteins such as other GPCRs and ion channels to determine selectivity on M4 receptors.

M1 muscarinic receptor = target: T2, M1 muscarinic receptor (Homo sapiens, UniProt P11229); experiment: Functional mobilization of intracellular calcium (FLIPR) in M1-CHO cells; assay type: cell-based; conditions: M1 receptor, calcium mobilization; for Emax: read-out: M1 Efficacy
T2 construct: expressed in transfected cells; host or cells: CHO (M1-CHO)
T2 sequence (P11229 1-460): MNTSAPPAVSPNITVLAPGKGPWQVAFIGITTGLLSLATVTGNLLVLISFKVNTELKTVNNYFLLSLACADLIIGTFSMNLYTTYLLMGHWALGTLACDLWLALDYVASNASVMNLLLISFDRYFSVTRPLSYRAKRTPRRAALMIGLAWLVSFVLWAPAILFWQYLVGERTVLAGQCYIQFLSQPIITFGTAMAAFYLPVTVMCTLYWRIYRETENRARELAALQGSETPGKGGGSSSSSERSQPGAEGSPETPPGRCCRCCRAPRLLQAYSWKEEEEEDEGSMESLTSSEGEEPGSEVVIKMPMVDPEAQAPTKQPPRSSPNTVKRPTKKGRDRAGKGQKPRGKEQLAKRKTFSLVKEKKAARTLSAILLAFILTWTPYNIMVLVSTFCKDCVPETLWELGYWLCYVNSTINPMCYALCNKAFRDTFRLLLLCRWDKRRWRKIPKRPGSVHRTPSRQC
Description: as §1, §2, §3, §4, §5

| Structure (SMILES) | M4 Activity (M4 muscarinic receptor) | Emax (M4 muscarinic receptor) [%] | M1 Activity (M1 muscarinic receptor) | Emax (M1 muscarinic receptor) [%] |
| --- | --- | --- | --- | --- |
| O=C(O[C@@H]1CCOC1)N1C2CCC1CC(N1CCC3(CCc4ccccc43)CC1)C2 (stereo partly shown) [compound 43] | x (activity was measured to be greater than 1.0 μM) | > 85 | xxx (activity was measured to be less than 0.1 μM) | > 85 |
| COC(=O)N1C2CCC1CC(N1CCC3(CC1)CN(C(=O)c1cc(C)n(C)n1)c1ccc(F)cc13)C2 (stereo not shown) [compound 44] | xx (activity was measured to be between 0.1 μM and 1.0 μM) | > 85 | xxx (activity was measured to be less than 0.1 μM) | 65 to 85 |
| CCOC(=O)N1CCC(N2CCC3(CC2)CN(C(=O)c2cccc(OC)c2)c2ccc(F)cc23)CC1 [compound 45] | xxx (activity was measured to be less than 0.1 μM) | 65 to 85 | xxx (activity was measured to be less than 0.1 μM) | > 85 |
| CCOC(=O)N1CCC(CN2CCC3(CC2)CN(C(C)=O)c2ccc(C)cc23)CC1 [compound 46] | xxx (activity was measured to be less than 0.1 μM) | 65 to 85 | xxx (activity was measured to be less than 0.1 μM) | > 85 |
| CC(=O)N1CC2(CCN(C3CC4CCC(C3)N4C(=O)O[C@H]3CCOC3)CC2)c2cc(F)ccc21 (stereo partly shown) [compound 47] | xx (activity was measured to be between 0.1 μM and 1.0 μM) | 65 to 85 | xxx (activity was measured to be less than 0.1 μM) | 65 to 85 |
| CN(C)C(=O)N1CC2(CCN(C3CCN(C(=O)OCCF)CC3)CC2)c2cc(F)ccc21 [compound 48] | xx (activity was measured to be between 0.1 μM and 1.0 μM) | 65 to 85 | xxx (activity was measured to be less than 0.1 μM) | > 85 |
| CCOC(=O)N1CCC(N2CCC3(CC2)CN(C(=O)O[C@H]2CCOC2)c2ccc(F)cc23)CC1 [compound 49] | xxx (activity was measured to be less than 0.1 μM) | 65 to 85 | xxx (activity was measured to be less than 0.1 μM) | > 85 |
| CCOC(=O)N1C2CCC1CC(N1CCC3(CC1)CN(C(=O)c1cc(C)n(C)n1)c1ccc(F)cc13)C2 (stereo not shown) [compound 50] | xx (activity was measured to be between 0.1 μM and 1.0 μM) | > 85 | xxx (activity was measured to be less than 0.1 μM) | > 85 |
| Cc1ccc2c(c1)C1(CCN(C3CC4CCC3C4)CC1)CN2C(=O)C1CC1 (stereo not shown) [compound 51] | xx (activity was measured to be between 0.1 μM and 1.0 μM) | 65 to 85 | xxx (activity was measured to be less than 0.1 μM) | 65 to 85 |
| CC(=O)N1CC2(CCN(C3CCCCC3C)CC2)c2cc(F)ccc21 (stereo not shown) [compound 52] | xxx (activity was measured to be less than 0.1 μM) | 65 to 85 | xxx (activity was measured to be less than 0.1 μM) | > 85 |
| CCOC(=O)N1CCC(N2CCC3(CC2)CN(C(=O)c2ccccc2C)c2ccc(F)cc23)CC1 [compound 53] | xx (activity was measured to be between 0.1 μM and 1.0 μM) | 65 to 85 | xx (activity was measured to be between 0.1 μM and 1.0 μM) | < 65 |
| CC(C)OC(=O)N1CCC(N2CCC3(CC2)CN(C(=O)N(C)C)c2ccc(F)cc23)CC1 [compound 54] | xx (activity was measured to be between 0.1 μM and 1.0 μM) | 65 to 85 | xxx (activity was measured to be less than 0.1 μM) | > 85 |
| CC(C)C(=O)N[C@H]1CC2(CCN(C[C@H]3C[C@H]4CC[C@H]3C4)CC2)c2ccccc21 [compound 55] | xxx (activity was measured to be less than 0.1 μM) | 65 to 85 | xxx (activity was measured to be less than 0.1 μM) | > 85 |
